Read-outs that look alike come from different tables or passages of the source.
Target: T1, MEK1 (Homo sapiens, UniProt Q02750)
T1 construct: purchased Millipore 14-420 (GST-MEK1); 14-703 (Cot1); host or cells: Cot1: insect cells (SF21)
Assay: MEK1 activation kinase assay (Assay 2, HTRF; Cot1 phosphorylates GST-MEK1)
Assay type: biochemical
Description: MEK1 Activation Kinase Assay
The kinase Cot1 activates MEK1 by phosphorylating its activation loop. The inhibitory activity of compounds of the present invention on this activation of MEK1 was quantified employing the HTRF assay described in the following paragraphs.
As substrate for the kinase reaction the unactive C-terminally His6-tagged GST-MEK1 fusion protein (Millipore cat. no 14-420) was used.
Then the kinase reaction was started by the addition of 2 μl of a solution of Cot1 in assay buffer and the resulting mixture was incubated for a reaction time of 20 min at 22° C. The concentration of Cot1 in the assay was adjusted depending of the activity of the enzyme lot and was chosen appropriate to have the assay in the linear range, typical enzyme concentrations were in the range of about 2 ng/μl (final conc. in the 5 μl assay volume).
The resulting mixture was incubated 2 h at 22° C. to allow the binding of the phosphorylated GST-MEK1 to the anti-GST-XL665 and the Eu-cryptate labelled anti-phospho-MEK 1/2 antibody. Subsequently the amount of Ser217/Ser221-phosphorylated substrate was evaluated by measurement of the resonance energy transfer from the Eu-Cryptate-labelled anti-phospho-MEK antibody to the anti-GST-XL665.

[1] = mean values from 2 or more measurements, read-out: Assay 2 IC50 values (nanomolar) (MEK1 activation kinase assay) (values are mean values from 2 or more measurements)
[2] = representative example compounds, read-out: IC50 in MEK1 activation kinase assay

T1 sequence (Q02750 whole entry): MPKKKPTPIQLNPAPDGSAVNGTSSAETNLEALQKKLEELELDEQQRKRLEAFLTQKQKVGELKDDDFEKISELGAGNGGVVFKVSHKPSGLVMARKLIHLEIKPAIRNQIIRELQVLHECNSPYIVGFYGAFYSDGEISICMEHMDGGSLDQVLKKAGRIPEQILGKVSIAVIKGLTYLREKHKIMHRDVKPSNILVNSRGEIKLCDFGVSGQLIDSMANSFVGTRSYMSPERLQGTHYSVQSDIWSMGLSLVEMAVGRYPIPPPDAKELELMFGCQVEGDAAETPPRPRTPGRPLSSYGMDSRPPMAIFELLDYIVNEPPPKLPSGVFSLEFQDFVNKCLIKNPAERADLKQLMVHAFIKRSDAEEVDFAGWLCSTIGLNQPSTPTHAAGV

Row | IC50 [1] [nM] | IC50 [2] [nM] | IC50 (IC50 in MEK1 activation kinase assay, representative example compounds) [nM] | SMILES
1 | 26.6 | < 1000 |  | NC(=O)c1cccc(Oc2cc(F)cc(Nc3ccc(I)cc3F)c2C(N)=O)c1 [Example 4.37, 2-(3-Carbamoyl-phenoxy)-4-fluoro-6-(2-fluoro-4-iodo-phenylamino)-benzamide]
2 | 23.5 | < 1000 |  | CS(=O)(=O)Cc1cccc(Oc2cc(F)cc(Nc3ccc(I)cc3F)c2C(N)=O)c1 [Example 4.34, 4-Fluoro-2-(2-fluoro-4-iodo-phenylamino)-6-(3-methane-sulfonylmethyl-phenoxy)-benzamide]
3 | 132 |  |  | C[C@H](O)CNC(=O)c1c(Nc2ccc(I)cc2F)cc(F)cc1Oc1cccc(NS(=O)(=O)N(C)C)c1 [Example 4.23, 2-[3-[[(dimethylamino)sulfonyl]amino]phenoxy]--4-fluoro-6-[(2-fluoro-4-iodophenyl)amino]-N-((S)-2-hydroxy-propyl)-benzamide]
4 | 13.5 |  |  | C#Cc1ccc(Nc2cc(F)cc(Oc3cccc(NS(=O)(=O)N(C)C)c3)c2C(N)=O)c(F)c1 [Example 7.2, 2-[3-[[(dimethylamino)sulfonyl]amino]phenoxy]-4-fluoro-6-[(4-ethynyl-2-fluorophenyl)amino]-benzamide]
5 | 49.9 |  |  | Cn1cncc1C(=O)Nc1cccc(Oc2cc(F)cc(Nc3ccc(I)cc3F)c2C(N)=O)c1 [Example 5.82, 3-Methyl-3H-imidazole-4-carboxylic acid {3-[2-carbamoyl-5-fluoro-3-(2-fluoro-4-iodo-phenylamino)-phenoxy]-phenyl}-amide]
6 | 21.8 |  |  | CN(C)S(=O)(=O)Nc1cccc(Oc2cc(F)cc(Nc3ccc(I)cc3F)c2C(N)=O)c1 [Example 2.1, 2-[3-[[(dimethylamino)sulfonyl]amino]phenoxy]-4-fluoro-6-[(2-fluoro-4-iodophenyl)amino]-benzamide]
7 | 28.1 | < 1000 |  | CC(=O)Nc1cccc(Oc2cc(F)cc(Nc3ccc(I)cc3F)c2C(N)=O)c1 [Example 5.3, 2-(3-Acetylamino-phenoxy)-4-fluoro-6-(2-fluoro-4-iodo-phenylamino)-benzamide]
8 | 86.2 |  |  | NC(=O)c1c(Nc2ccc(I)cc2F)cc(F)cc1Oc1cccc(NC(=O)c2ccno2)c1 [Example 5.78, Isoxazole-5-carboxylic acid {3-[2-carbamoyl-5-fluoro-3-(2-fluoro-4-iodo-phenylamino)-phenoxy]-phenyl}-amide]
9 | 22.2 |  | < 1000 | CNS(=O)(=O)Nc1cccc(Oc2cc(F)cc(Nc3ccc(I)cc3F)c2C(N)=O)c1 [Example 5.41, 2-[3-[[(methylamino)sulfonyl]amino]phenoxy]-4-fluoro-6-[(2-fluoro-4-iodophenyl)amino]-benzamide]
10 | 61.3 |  |  | CNC(=O)c1c(Nc2ccc(I)cc2F)cc(F)cc1Oc1cccc(NS(=O)(=O)N(C)C)c1 [Example 4.17, 2-[3-[[(dimethylamino)sulfonyl]amino]phenoxy]--4-fluoro-6-[(2-fluoro-4-iodophenyl)amino]-N-methyl-benzamide]
11 | 15.7 | < 1000 |  | NC(=O)c1c(Nc2ccc(I)cc2F)cc(F)cc1Oc1cccc(NS(=O)(=O)c2c[nH]cn2)c1 [Example 5.49, 4-Fluoro-2-(2-fluoro-4-iodo-phenylamino)-6-[3-(1H-imidazole-4-sulfonylamino)-phenoxy]-benzamide]
12 | 69.9 |  |  | CN(C)S(=O)(=O)Nc1cccc(Oc2cc(F)cc(Nc3ccc(I)cc3F)c2C(=O)NCCO)c1 [Example 4.18, 2-[3-[[(dimethylamino)sulfonyl]amino]phenoxy]--4-fluoro-6-[(2-fluoro-4-iodophenyl)amino]-N-(2-hydroxy-ethyl)-benzamide]
13 | 18.5 |  |  | NC(=O)c1c(Nc2ccc(I)cc2F)cc(F)cc1Oc1cccc(NS(N)(=O)=O)c1 [Example 5.7, 2-[3-[[(amino)sulfonyl]amino]phenoxy]-4-fluoro-6-[(2-fluoro-4-iodophenyl)amino]-benzamide]
14 | 80.1 |  |  | CN(C)S(=O)(=O)Nc1cccc(Oc2cc(F)cc(Nc3ccc(I)cc3F)c2C(=O)NCCCO)c1 [Example 4.19]
15 | 31.5 | < 1000 |  | NC(=O)c1c(Nc2ccc(I)cc2F)cc(F)cc1Oc1cccc(CS(N)(=O)=O)c1 [Example 4.33, 4-Fluoro-2-(2-fluoro-4-iodo-phenylamino)-6-(3-sulfamoylmethyl-phenoxy)-benzamide]

More lines, now with the values behind:

Row | SMILES | IC50 [1] [nM] | IC50 [2] [nM] | IC50 (IC50 in MEK1 activation kinase assay, representative example compounds) [nM]
16 | CN1CCC[C@H]1COc1cc(F)cc(Nc2ccc(I)cc2F)c1C(N)=O [Example 4.25, 4-Fluoro-2-(2-fluoro-4-iodo-phenylamino)-6-((S)-1-methyl-pyrrolidin-2-ylmethoxy)-benzamide] | 182 | < 1000 | 
17 | CS(=O)(=O)N1CCN(CCOc2cc(F)cc(Nc3ccc(I)cc3F)c2C(N)=O)CC1 [Example 5.31, 4-Fluoro-2-(2-fluoro-4-iodo-phenylamino)-6-[2-(4-methanesulfonyl-piperazin-1-yl)-ethoxy]-benzamide] | 153 |  | 
18 | NC(=O)c1c(Nc2ccc(I)cc2F)cc(F)cc1Oc1cccc(NC(=O)c2ccoc2)c1 [Example 5.77, Furan-3-carboxylic acid {3-[2-carbamoyl-5-fluoro-3-(2-fluoro-4-iodo-phenylamino)-phenoxy]-phenyl}-amide] | 127 |  | 
19 | CN(C)C(=O)N1CCN(CCOc2cc(F)cc(Nc3ccc(I)cc3F)c2C(N)=O)CC1 [Example 5.30, 4-{2-[2-Carbamoyl-5-fluoro-3-(2-fluoro-4-iodo-phenylamino)-phenoxy]-ethyl}-piperazine-1-carboxylic acid dimethylamide] | 138 |  | 
20 | CC(C)(O)C(O)CCOc1cc(F)cc(Nc2ccc(I)cc2F)c1C(N)=O (single isomer, unassigned) [Example 6.3, 2-(3,4-Dihydroxy-4-methyl-pentyloxy)-4-fluoro-6-(2-fluoro-4-iodo-phenylamino)-benzamide] | 30.6 |  | 
21 | CC(C)(C)OC(=O)Nc1cccc(Oc2c(F)c(F)c(F)c(Nc3ccc(I)cc3F)c2C(N)=O)c1 [Example 2.19, {3-[2-Carbamoyl-4,5,6-trifluoro-3-(2-fluoro-4-iodo-phenylamino)-phenoxy]-phenyl}-carbamic acid tert-butyl ester] | 152 | < 1000 | 
22 | CC(=O)N1CCC[C@@H]1COc1cc(F)cc(Nc2ccc(I)cc2F)c1C(N)=O [Example 5.39, 2-((R)-1-Acetyl-pyrrolidin-2-ylmethoxy)-4-fluoro-6-(2-fluoro-4-iodo-phenylamino)-benzamide] | 438 |  | 
23 | CC(=O)Nc1ccc(Oc2cc(F)cc(Nc3ccc(I)cc3F)c2C(N)=O)cc1 [Example 4.5, 2-(4-Acetylamino-phenoxy)-4-fluoro-6-(2-fluoro-4-iodo-phenylamino)-benzamide] |  | < 1000 | 
24 | CC(C)(O)C(O)CCOc1cc(F)cc(Nc2ccc(I)cc2F)c1C(N)=O (stereo not shown) [Example 6.1, 2-(3,4-Dihydroxy-4-methyl-pentyloxy)-4-fluoro-6-(2-fluoro-4-iodo-phenylamino)-benzamide] | 19.7 |  | 
25 | CC(O)(CO)CCOc1cc(F)cc(Nc2ccc(I)cc2F)c1C(N)=O (single isomer, unassigned) [Example 6.5, 2-(3,4-Dihydroxy-3-methyl-butoxy)-4-fluoro-6-(2-fluoro-4-iodo-phenylamino)-benzamide] | 172 |  | 
26 | NC(=O)c1c(Nc2ccc(I)cc2F)cc(F)cc1Oc1cccc(NC(=O)c2ccsc2)c1 [Example 5.75, Thiophene-3-carboxylic acid {3-[2-carbamoyl-5-fluoro-3-(2-fluoro-4-iodo-phenylamino)-phenoxy]-phenyl}-amide] | 103 |  | 

Source: patent US20110039819A1, “SUBSTITUTED PHENOXYBENZAMIDES” (priority 2008, published 2011)
